Results taken from ChEMBL document CHEMBL3763012, “From Sphingosine Kinase to Dihydroceramide Desaturase: A Structure-Activity Relationship (SAR) Study of the Enzyme Inhibitory and Anticancer Activity of 4-((4-(4-Chlorophenyl)thiazol-2-yl)amino)phenol (SKI-II)” (J Med Chem, 2016).
Each block holds one compound with its values, some of them ahead of it. Activity calls are given as the source filed them. The rule behind the calls is not given here.

Assays:
[1] = biological target: T1, Sphingolipid delta(4)-desaturase DES1 (Homo sapiens) (UniProt O15121); experiment: Inhibition of Des1 activity in human Jurkat cells using fluorescence labeled DhCer-C6-NBD as substrate at 0.1 to 10 uM after 3 hrs by HPLC method; type: cell-based
T1 sequence (whole entry): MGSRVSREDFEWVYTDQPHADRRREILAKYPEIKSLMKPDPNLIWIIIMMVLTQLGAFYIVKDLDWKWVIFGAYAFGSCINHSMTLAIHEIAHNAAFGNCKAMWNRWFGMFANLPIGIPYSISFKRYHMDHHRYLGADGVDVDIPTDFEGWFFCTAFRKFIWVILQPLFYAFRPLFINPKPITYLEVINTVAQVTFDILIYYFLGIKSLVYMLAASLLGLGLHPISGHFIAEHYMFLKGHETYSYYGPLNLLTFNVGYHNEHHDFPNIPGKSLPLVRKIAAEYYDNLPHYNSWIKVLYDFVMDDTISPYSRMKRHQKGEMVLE

[2] = biological target: T1, Sphingolipid delta(4)-desaturase DES1 (Homo sapiens); experiment: Inhibition of Des1 activity in human Jurkat cells using fluorescence labeled DhCer-C6-NBD as substrate at 1 and 10 uM after 3 hrs by HPLC method; type: cell-based
[3] = biological target: T2, Sphingosine kinase 1 (Homo sapiens, UniProt Q9NYA1); experiment: Inhibition of recombinant His-tagged human SK1 assessed as production of [32P]-S1P using 10 uM sphingosine as substrate by TLC method in presence of 1 mM [gamma32P]-ATP
T2 sequence (Q9NYA1 whole entry): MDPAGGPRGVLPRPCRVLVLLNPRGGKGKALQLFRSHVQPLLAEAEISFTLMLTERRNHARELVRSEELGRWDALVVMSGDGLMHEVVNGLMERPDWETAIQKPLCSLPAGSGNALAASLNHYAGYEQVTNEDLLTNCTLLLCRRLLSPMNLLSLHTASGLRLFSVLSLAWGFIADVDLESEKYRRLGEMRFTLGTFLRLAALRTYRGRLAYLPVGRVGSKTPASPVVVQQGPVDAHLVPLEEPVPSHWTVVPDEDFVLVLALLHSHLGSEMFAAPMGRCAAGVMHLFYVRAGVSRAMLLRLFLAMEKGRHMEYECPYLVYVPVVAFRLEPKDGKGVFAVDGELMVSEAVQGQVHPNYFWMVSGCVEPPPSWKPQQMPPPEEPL

[4] = biological target: T3, Sphingosine kinase 2 (Homo sapiens, UniProt Q9NRA0); experiment: Inhibition of recombinant human SK2 assessed as production of [32P] S1P using 10 uM sphingosine as substrate by TLC method in presence of 1 mM [gamma32P]-ATP relative to control
T3 sequence (Q9NRA0 whole entry): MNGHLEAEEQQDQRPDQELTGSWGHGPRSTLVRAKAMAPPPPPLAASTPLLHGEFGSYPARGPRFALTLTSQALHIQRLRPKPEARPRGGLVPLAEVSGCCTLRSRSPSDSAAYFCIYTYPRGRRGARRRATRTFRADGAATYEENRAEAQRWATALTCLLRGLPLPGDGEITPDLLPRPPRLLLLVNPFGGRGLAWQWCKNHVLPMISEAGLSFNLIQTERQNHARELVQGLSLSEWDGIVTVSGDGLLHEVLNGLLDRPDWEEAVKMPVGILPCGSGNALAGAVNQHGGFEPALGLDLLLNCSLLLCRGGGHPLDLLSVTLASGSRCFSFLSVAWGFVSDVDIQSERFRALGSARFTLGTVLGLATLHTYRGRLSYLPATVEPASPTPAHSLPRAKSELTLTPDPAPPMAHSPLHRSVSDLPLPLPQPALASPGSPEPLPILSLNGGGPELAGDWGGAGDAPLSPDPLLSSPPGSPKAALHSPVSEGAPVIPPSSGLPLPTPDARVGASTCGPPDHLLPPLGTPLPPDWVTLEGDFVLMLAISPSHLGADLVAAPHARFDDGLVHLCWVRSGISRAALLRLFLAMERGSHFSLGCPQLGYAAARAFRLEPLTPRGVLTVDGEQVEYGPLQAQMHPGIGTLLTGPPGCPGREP

[5] = biological target: T4, Sphingosine kinase 2 (Homo sapiens) (UniProt Q9NRA0); experiment: Inhibition of recombinant human SK2 assessed as production of [32P] S1P using sphingosine as substrate at 10 uM by TLC method in presence of 100 uM [gamma32P]-ATP relative to control; values are per cent of control
T4 sequence (whole entry): T3 sequence (Q9NRA0 whole entry)

[6] = Antiproliferative activity against human PC3 cells after 72 hrs by MTS assay; type: functional; settings: PC-3, 72 h
[7] = biological target: T3, Sphingosine kinase 2; experiment: Inhibition of recombinant SK2 (unknown origin) expressed in Sf9 cells assessed as [33P]S1P formation using D-erythro sphingosine as substrate and gamma[33P]ATP by liquid scintillation counting
[8] = biological target: T1, Sphingolipid delta(4)-desaturase DES1 (Homo sapiens); experiment: Inhibition of Des1 activity in human Jurkat cells using fluorescence labeled DhCer-C6-NBD as substrate at 10 uM after 3 hrs by HPLC method; type: cell-based
[9] = biological target: T1, Sphingolipid delta(4)-desaturase DES1 (Homo sapiens); experiment: Inhibition of Des1 (unknown origin) at 30 uM
[10] = biological target: T2, Sphingosine kinase 1; experiment: Inhibition of SK1 (unknown origin)
[11] = biological target: T3, Sphingosine kinase 2; experiment: Inhibition of SK2 (unknown origin)
[12] = biological target: T5, Sphingolipid delta(4)-desaturase DES1 (Homo sapiens, UniProt O15121); experiment: Drug metabolism in human Jurkat cells assessed as DES1-mediated (2E,4E,6E,8E)-3,7-dimethyl-N-(4-oxocyclohexa-2,5-dienylidene)-9-(2,6,6-trimethylcyclohex-1-enyl)nona-2,4,6,8-tetraenamide formation; type: ADME, cell-based
T5 sequence (O15121 whole entry): T1 sequence (whole entry)

[13] = Cytotoxicity against human PC3 cells after 72 hrs by MTT assay; type: functional; settings: PC-3, 72 h
[14] = test system: HEK293; experiment: Induction of SK1 degradation in HEK293 cells at 10 uM after 16 hrs by western blotting analysis in presence of proteasome inhibitor MG132; type: functional, cell-based; settings: Homo sapiens
[15] = biological target: T1, Sphingolipid delta(4)-desaturase DES1 (Homo sapiens); experiment: Irreversible inhibition of Des1 activity in human Jurkat cells treated with parent compound treated with fenretinide using fluorescence labeled DhCer-C6-NBD as substrate by HPLC method; type: cell-based; settings: TDE = time-dependent effect
[16] = biological target: T5, Sphingolipid delta(4)-desaturase DES1; experiment: Drug level in human Jurkat cells assessed as DES1-mediated compound oxidation treated with fenretinide; type: ADME, cell-based
[17] = test system: PC-3; experiment: Increase in total dhCer level in human PC3 cells at 10 uM after 5 hrs by LC-MS analysis; type: functional, cell-based
[18] = test system: PC-3; experiment: Anticlonogenic activity against human PC3 cells at 0.05 to 10 uM after 21 days by soft agar colony forming assay; type: functional, cell-based
[19] = biological target: T3, Sphingosine kinase 2; experiment: Inhibition of human SK2 using D-erythro sphingosine as substrate and gamma[33P]ATP by Lineweaver-Burk plot analysis
[20] = biological target: T2, Sphingosine kinase 1; experiment: Inhibition of human SK1 using D-erythro sphingosine as substrate and gamma[33P]ATP by Lineweaver-Burk plot analysis

inhibition [1]: inactive
Compound: Oc1ccc(-c2nnc(-c3ccc(Cl)cc3)o2)cc1

inhibition [2]: Active
Compound: N/C(=N\O)c1ccc(Nc2nnc(-c3ccc(Cl)cc3)o2)cc1

IC50 [3]: 3.1 µM | IC50 [4]: 5.5 µM | residual activity [5]: 39%
Compound: Clc1ccc(-c2nnc(NCc3ccncc3)o2)cc1
GI50 [6]: > 100 µM

Ki [7]: 1.3 µM
Compound: CCCCCCCCc1ccc(-c2noc([C@H]3CCCN3C(=N)N)n2)cc1

inhibition [8]: inactive
Compound: N/C(=N\O)c1ccc(-c2nnc(-c3ccc(Cl)cc3)o2)cc1

inhibition [1]: Active
Compound: Oc1ccc(Nc2nnc(-c3ccc(Cl)cc3)o2)cc1

inhibition [9]: 40%
Compound: O=C(NCc1ccncc1)C12CC3CC(C1)CC(c1ccc(Cl)cc1)(C3)C2

IC50 [10]: 0.02 µM | IC50 [11]: 0.148 µM
Compound: OC[C@H]1C[C@H](O)CN1CCCc1ccc(Nc2nc(-c3cccc(C(F)(F)F)c3)cs2)cc1

inhibition [1]: Active
Compound: Oc1ccc(Nc2nnc(-c3ccc(I)cc3)o2)cc1

Drug metabolism [12]: metabolite_detected
Compound: CC1=C(/C=C/C(C)=C/C=C/C(C)=C/C(=O)Nc2ccc(O)cc2)C(C)(C)CCC1 [FENRETINIDE]
GI50 [13]: 2 µM

residual activity [5]: 45%
Compound: Cc1cc(CS(=O)(=O)c2ccccc2)cc(OCc2ccc(CN3CCC[C@@H]3CO)cc2)c1
Activity [14]: Active | GI50 [6]: 19 µM

residual activity [5]: 112%
Compound: CCCCCCCc1nc(-c2ccc(CNC(=O)[C@H]3NCC[C@@H]3O)cc2)no1
Activity [14]: Active | GI50 [6]: > 100 µM

inhibition [15]: tde | Drug metabolism [16]: metabolite_detected
Compound: CC1=C(/C=C/C(C)=C/C=C/C(C)=C/C(=O)N=C2C=CC(=O)C=C2)C(C)(C)CCC1

inhibition [1]: Active | residual activity [5]: 90%
Compound: Oc1ccc(Nc2nc(-c3ccc(Cl)cc3)cs2)cc1
Activity [17]: Active | Activity [18]: Active | Activity [14]: Active | GI50 [6]: 11 µM

Ki [19]: 6.9 µM | Ki [20]: 27 µM
Compound: Cc1ccc(S(=O)(=O)Nc2ccccc2/C=N/c2ccccc2NS(=O)(=O)c2ccc(C)cc2)cc1

residual activity [5]: 70%
Compound: Clc1ccc(-c2nnc(Nc3ccc(-c4nn[nH]n4)cc3)o2)cc1
GI50 [6]: 15 µM
